Earlier results in patent US20050249795A1, “Gemcitabine compositions for better drug delivery” (NEOPHARM, INC., priority 2002, published 2005).
Counter-ions that a name gives are not always drawn.

Experiments:
[1] = in patients
[2] = tested on: Lewis lung murine xenograft
[3] = tested on: LX-1 human lung xenografts; conditions: in vivo, LX-1 human lung xenograft
[4] = tested on: CEM T lymphoblastoid cells
[5] = tested on: NCI-H460 xenografts; conditions: in vivo, NCI-H460 xenograft
[6] = tested on: CALU-6 human lung xenografts; conditions: in vivo, CALU-6 human lung xenograft
[7] = tested on: NCI-H520 xenografts; conditions: in vivo, NCI-H520 xenograft

| Structure (SMILES) | half-life [1] | interaction with cisplatin [2] | activity in combination with cisplatin [3] | internucleosomal DNA fragmentation [4] | activity in combination with cisplatin [5] | activity in combination with cisplatin [6] | activity with cisplatin in vitro | activity in combination with cisplatin [7] |
| --- | --- | --- | --- | --- | --- | --- | --- | --- |
| Nc1ccn([C@@H]2O[C@H](CO)[C@@H](O)C2(F)F)c(=O)n1 [Gemcitabine HCL, gemcitabine hydrochloride] | very short half-life |  |  |  |  |  |  |  |
| Nc1ccn([C@@H]2O[C@H](CO)[C@@H](O)C2(F)F)c(=O)n1 [Gemcitabine] |  | synergistic | showed activity | induces internucleosomal DNA fragmentation | minimal activity | showed activity | dose-dependent synergistic activity | minimal activity |
